The supplement of paper PMC10307832

Experiments:
Assay in all cases: relative viability (nuclei count vs DMSO), 5 days (fraction); higher = more cells survive
[1] = compound: C[C@@H](N)c1ccc(C(=O)Nc2ccnc3[nH]ccc23)cc1 + Cc1cc(Nc2cc(N3CCN(C)CC3)nc(Sc3ccc(NC(=O)C4CC4)cc3)n2)n[nH]1 [Tozasertib] (partner 0.1 µM)
Procedure, shortened: (§1)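 Relative viability equals treated-well nuclei counts divided by vehicle-well nuclei counts. Counts came from 4× images of lung cancer cell lines grown in 1536-well plates for 5 days after pin-tool dosing on the day after seeding. Dosing used one drug alone or a fixed anchor-drug dose plus five library-drug doses (not always all listed) in √10 steps, and values are medians of duplicate plates.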

[2] = compound: O[C@H]1CC[C@H](Nc2ncc3nc(Nc4c(F)cc(F)cc4F)n([C@H]4CCOC4)c3n2)CC1 [Tanzisertib] + CC(=O)c1c(C)c2cnc(Nc3ccc(N4CCNCC4)cn3)nc2n(C2CCCC2)c1=O [Palbociclib] (partner 0.5 µM)
Procedure, shortened: as §1

[3] = compound: O[C@H]1CC[C@H](Nc2ncc3nc(Nc4c(F)cc(F)cc4F)n([C@H]4CCOC4)c3n2)CC1 [Tanzisertib] + Cc1nc(NC(=O)N2CCC[C@H]2C(N)=O)sc1-c1ccnc(C(C)(C)C(F)(F)F)c1 [Alpelisib] (partner 2 µM)
Procedure, shortened: as §1

[4] = compound: O[C@H]1CC[C@H](Nc2ncc3nc(Nc4c(F)cc(F)cc4F)n([C@H]4CCOC4)c3n2)CC1 [Tanzisertib] + Nc1ncn([C@H]2C[C@H](O)[C@@H](CO)O2)c(=O)n1 [Decitabine] (partner 2 µM)
Procedure, shortened: as §1

| Cell Line | relative viability ([1]; first compound 0.04 µM) | relative viability ([1]; first compound 0.1265 µM) | relative viability ([1]; first compound 0.4 µM) | relative viability ([1]; first compound 1.265 µM) | relative viability ([1]; first compound 4 µM) | relative viability ([2]; first compound 0.08 µM) | relative viability ([2]; first compound 0.253 µM) | relative viability ([2]; first compound 0.8 µM) | relative viability ([2]; first compound 2.53 µM) | relative viability ([2]; first compound 8 µM) | relative viability ([3]; first compound 0.08 µM) | relative viability ([3]; first compound 0.253 µM) | relative viability ([3]; first compound 0.8 µM) | relative viability ([3]; first compound 2.53 µM) | relative viability ([3]; first compound 8 µM) | relative viability ([4]; first compound 0.08 µM) | relative viability ([4]; first compound 0.253 µM) | relative viability ([4]; first compound 0.8 µM) | relative viability ([4]; first compound 2.53 µM) | relative viability ([4]; first compound 8 µM) |
| --- | --- | --- | --- | --- | --- | --- | --- | --- | --- | --- | --- | --- | --- | --- | --- | --- | --- | --- | --- | --- |
| HCC-78 | 0.51 | 0.405 | 0.733 | 0.415 | 0.633 | 0.405 | 0.474 | 0.488 | 0.514 | 0.472 | 0.322 | 0.304 | 0.309 | 0.372 | 0.34 | 0.683 | 0.675 | 0.666 | 0.704 | 0.622 |
| COR-L23 | 0.232 | 0.188 | 0.204 | 0.202 | 0.144 | 0.325 | 0.331 | 0.336 | 0.275 | 0.298 | 0.784 | 0.759 | 0.743 | 0.807 | 0.793 | 0.454 | 0.502 | 0.411 | 0.511 | 0.467 |
| NCI-H1993 | 0.579 | 0.591 | 0.56 | 0.639 | 0.6 | 0.652 | 0.531 | 0.611 | 0.617 | 0.595 | 0.661 | 0.663 | 0.524 | 0.693 | 0.699 | 0.723 | 0.732 | 0.589 | 0.438 | 0.539 |
| NCI-H2405 | 0.858 | 0.832 | 0.759 | 0.507 | 0.35 | 0.508 | 0.502 | 0.55 | 0.546 | 0.47 | 0.933 | 0.696 | 0.805 | 0.83 | 0.547 | 0.784 | 0.783 | 0.76 | 0.914 | 0.629 |
| NCI-H2126 | 0.92 | 0.885 | 0.877 | 0.921 | 0.854 | 0.34 | 0.355 | 0.349 | 0.37 | 0.324 | 0.775 | 0.749 | 0.749 | 0.725 | 0.736 | 0.558 | 0.586 | 0.574 | 0.592 | 0.658 |
| NCI-H1944 | 0.278 | 0.269 | 0.271 | 0.258 | 0.218 | 0.322 | 0.343 | 0.324 | 0.339 | 0.295 | 0.876 | 0.822 | 0.822 | 0.789 | 0.758 | 0.453 | 0.416 | 0.43 | 0.397 | 0.459 |
| NCI-H358 | 0.111 | 0.109 | 0.0968 | 0.105 | 0.0998 | 0.129 | 0.134 | 0.127 | 0.127 | 0.148 | 0.902 | 0.762 | 0.922 | 0.717 | 0.635 | 0.232 | 0.221 | 0.189 | 0.248 | 0.181 |
| NCI-H1734 | 0.263 | 0.247 | 0.259 | 0.213 | 0.202 | 0.361 | 0.335 | 0.321 | 0.343 | 0.354 | 0.724 | 0.704 | 0.673 | 0.702 | 0.642 | 0.492 | 0.492 | 0.399 | 0.52 | 0.441 |
| A-427 | 0.26 | 0.185 | 0.237 | – | 0.22 | 0.565 | 0.538 | 0.52 | 0.507 | 0.511 | 1.11 | 1.11 | 1.06 | 1.06 | 0.96 | 0.58 | 0.567 | 0.569 | 0.537 | 0.631 |
| RERF-LC-KJ | 0.643 | 0.453 | 0.525 | 0.513 | 0.422 | 1.12 | 1.01 | 1.25 | 1.05 | 1.05 | 0.819 | 0.754 | 0.918 | 0.777 | 0.719 | 0.75 | 0.771 | 0.705 | 0.688 | 0.628 |
| NCI-H727 | 0.654 | 0.746 | 0.66 | 0.602 | 0.544 | 0.74 | 0.673 | 0.614 | 0.676 | 0.626 | 0.511 | 0.463 | 0.654 | 0.515 | 0.684 | 0.941 | 0.875 | 0.702 | 0.89 | 0.755 |
| LCLC-97TM1 | 0.208 | 0.227 | 0.34 | 0.343 | 0.279 | 0.222 | 0.243 | 0.215 | 0.204 | 0.229 | – | 0.276 | 0.271 | 0.238 | 0.292 | 0.25 | 0.264 | 0.201 | 0.245 | 0.228 |
| BEN | 0.466 | 0.432 | 0.53 | 0.484 | 0.48 | 0.448 | 0.532 | 0.502 | 0.492 | 0.509 | 0.978 | 1.04 | 1.08 | 0.955 | 1.01 | 0.707 | 0.766 | 0.782 | 0.702 | 0.57 |
| NCI-H2023 | 0.426 | 0.377 | 0.395 | 0.462 | 0.279 | 0.335 | 0.406 | 0.406 | 0.325 | 0.328 | 0.671 | 0.577 | 0.627 | 0.584 | 0.545 | 0.249 | 0.21 | 0.217 | 0.165 | 0.166 |
| LC-2-ad | 0.469 | 0.523 | 0.512 | – | 0.441 | 0.484 | 0.548 | 0.471 | 0.441 | 0.502 | 0.902 | 0.888 | 0.939 | 0.876 | 0.815 | 0.774 | 0.788 | 0.777 | 0.806 | 0.722 |
| ABC-1 | 0.173 | 0.158 | 0.203 | – | 0.164 | 0.927 | 0.597 | 0.946 | 0.818 | 0.824 | 1.1 | 1.06 | 1.03 | 1.3 | 1.09 | 1.03 | 0.958 | 0.976 | 1.18 | 0.836 |
